From patent US10745355B2, “Anti-cancer compounds” (THE UNIVERSITY OF SYDNEY, priority 2015, dated 2020) come the findings set out here.

One test addresses T1, EPHB1 (Homo sapiens, UniProt P54762).
T1 sequence (P54762 18-984): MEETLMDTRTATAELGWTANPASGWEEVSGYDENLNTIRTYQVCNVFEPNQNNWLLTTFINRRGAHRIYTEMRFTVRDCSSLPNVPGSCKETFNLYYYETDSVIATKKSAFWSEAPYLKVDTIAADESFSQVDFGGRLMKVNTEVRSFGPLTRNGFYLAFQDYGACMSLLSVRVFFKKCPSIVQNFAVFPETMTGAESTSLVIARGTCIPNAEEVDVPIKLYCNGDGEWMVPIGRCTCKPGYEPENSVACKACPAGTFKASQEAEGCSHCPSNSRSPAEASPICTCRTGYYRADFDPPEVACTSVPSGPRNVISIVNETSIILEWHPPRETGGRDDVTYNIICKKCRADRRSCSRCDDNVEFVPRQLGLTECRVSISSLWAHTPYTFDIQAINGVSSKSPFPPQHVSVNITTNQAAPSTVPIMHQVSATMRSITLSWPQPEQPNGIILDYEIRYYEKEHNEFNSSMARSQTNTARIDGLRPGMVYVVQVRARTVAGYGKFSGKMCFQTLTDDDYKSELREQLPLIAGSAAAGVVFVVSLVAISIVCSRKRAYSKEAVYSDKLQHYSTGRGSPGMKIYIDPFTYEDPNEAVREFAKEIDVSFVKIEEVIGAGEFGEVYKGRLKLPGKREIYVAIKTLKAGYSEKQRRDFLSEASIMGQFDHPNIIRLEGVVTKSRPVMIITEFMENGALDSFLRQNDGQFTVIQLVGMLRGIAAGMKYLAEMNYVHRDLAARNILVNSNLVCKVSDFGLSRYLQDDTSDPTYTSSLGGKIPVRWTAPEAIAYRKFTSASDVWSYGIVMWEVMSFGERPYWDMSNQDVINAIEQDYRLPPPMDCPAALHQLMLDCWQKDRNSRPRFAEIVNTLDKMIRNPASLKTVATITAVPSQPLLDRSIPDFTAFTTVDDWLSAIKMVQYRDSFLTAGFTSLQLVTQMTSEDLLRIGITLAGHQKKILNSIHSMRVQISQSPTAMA
Briefly: Kinase profiling (ProQinase 33PanQinase Activity Assay), EPHB1. As to conditions: read-out: residual activity, EPHB1. The format is biochemical. As to the method:
(§1) The kinase profiling of compound 1-08 at 10 and 50 μM was performed by ProQinase GmbH (Freiburg, Germany). A radiometric protein kinase assay (^33PanQinase® Activity Assay) and the non-radiometric ADP-Glo™ Assay (Promega, Madison, Wis., USA) were used for measuring kinase activity of 387 protein kinases and 13 lipid kinases, respectively. The results are shown in Table 3 (only the top 10 kinases are listed, and the selectivity score describes the portion of kinases inhibited more than 50% in relation to all tested kinases).

For another test, the system named is U87 glioblastoma cells. Briefly: Immunofluorescence staining of β-tubulin in treated U87 cells (microtubules, multinucleated cells, mitotic spindle). It is filed as cell-based. As to the method: FIGS. 10A-10D. […] (10A) Compound 1-08 inhibits tubulin polymerisation in vitro. Data are expressed as mean from at least 3 independent experiments; each data point was performed in triplicates. (10B) U87 cells treated with compound 1-08 (24 h) were stained with Alexa488-labelled anti-β-tubulin antibody (green) or DAPI (blue). Treatment profoundly disturbed the microtubule network and caused formation of multinucleated cell (white arrows). White scale bar represents 50 μm. Multinucleated cells were manually counted and at least 200 cells were counted for each sample. Data in the bar graph (10C) are expressed as mean±SEM (n=3; * P<0.05, *** P<0.001; 1-way ANOVA followed by Newman-Keuls posttest). (10D) U87 cells were treated with compound 1-08 (48 h), tubulin and DNA were stained as in (10B). Treatment with 1-08 caused defective mitotic spindle formation. Representative images from 3 independent experiments are shown. White scale bar represents 2 μm.
The effect of compound 1-08 on tubulin polymerisation and mitotic spindle formation was also investigated. The fluorescence-based tubulin polymerisation assay was conducted in the final volume of 55 μL using the Tubulin Polymerisation Assay kit (Cytoskeleton, Colo., USA) as per the manufacturer's instructions. Porcine brain tubulin was incubated with test compounds (paclitaxel, vinblastine and compound 1-08) at 37° C. and fluorescence was measured using FLUOstar Omega microplate reader (BMG Labtech, Ortenberg, Germany; excitation at 355 nm and emission at 460 nm). […] To test whether compound 1-08 alters microtubules in vivo, U87 glioblastoma cells were treated with compound 1-08 and the effect on the microtubules was determined by immunofluorescence staining of β-tubulin. […] The consequence of microtubule depolymerisation induced by compound 13 was disrupted spindle assembly (FIG. 10D). In untreated U87 cells undergoing mitosis, microtubules are assembled into bipolar spindles (control images).

The target of test [1] is T2, (Homo sapiens, UniProt P43403).
T2 sequence (P43403 1-619): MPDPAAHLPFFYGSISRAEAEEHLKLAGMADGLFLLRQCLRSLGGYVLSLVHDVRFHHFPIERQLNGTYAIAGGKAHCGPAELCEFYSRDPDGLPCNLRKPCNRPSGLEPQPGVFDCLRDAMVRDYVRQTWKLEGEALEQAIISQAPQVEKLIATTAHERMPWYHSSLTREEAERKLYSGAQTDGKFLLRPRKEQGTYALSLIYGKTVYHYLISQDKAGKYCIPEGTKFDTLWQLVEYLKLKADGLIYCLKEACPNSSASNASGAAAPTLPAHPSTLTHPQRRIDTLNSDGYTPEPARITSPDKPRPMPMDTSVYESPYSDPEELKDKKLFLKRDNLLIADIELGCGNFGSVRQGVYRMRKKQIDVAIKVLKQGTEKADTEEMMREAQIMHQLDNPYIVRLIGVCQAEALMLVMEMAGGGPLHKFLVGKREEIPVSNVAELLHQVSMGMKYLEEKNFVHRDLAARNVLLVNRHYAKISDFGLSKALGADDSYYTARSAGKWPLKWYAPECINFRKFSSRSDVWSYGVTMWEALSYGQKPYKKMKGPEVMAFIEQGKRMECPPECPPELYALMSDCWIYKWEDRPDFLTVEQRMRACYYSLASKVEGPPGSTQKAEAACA
Briefly: Kinase profiling (ProQinase 33PanQinase Activity Assay), ZAP90. The format is biochemical. As to conditions: read-out: residual activity, ZAP90. The protocol: as §1

With `O=C(CCCc1ccc(-c2cnc3ccccc3c2)cc1)Nc1ccc(O)cc1` [Compound 1-08, N-(4-hydroxyphenyl)-4-(4-(quinolin-3-yl)phenyl)butanamide], the results for the remaining activity at 10 µM (on EPHB1 (10 μM compound); in test [1] (10 μM compound)) were 57% and 60%, respectively. The results for the remaining activity at 50 µM (at EPHB1 (50 μM compound); in test [1] (50 μM compound)) were 20% and 14%, respectively. For the same compound, the effect on microtubules result with U87 glioblastoma cells (1 and 5 μM, FIG. 10B) is reported as “disassembly of microtubules”. Also, the “number of multinucleated cells” value with U87 glioblastoma cells (1 and 5 μM, FIGS. 10B and 10C) is recorded as “dose-dependent increase in the number of multinucleated cells”. In the test with U87 glioblastoma cells (48 h, FIG. 10D), the mitotic spindle formation result was “defective spindle formation and chromosome misalignment”.
